Values quoted from earlier work as cited in patent publication US20210023011A1, “METHOD AND SYSTEM FOR PRODUCING HIGH PURITY VANCOMYCIN HYDROCHLORIDE” (ZHEJIANG MEDICINE CO., LTD, priority 2013, published 2021).
Structures can show the parent of a compound that is named as a salt.

How the values were obtained:
[1] = lyophilized powder

CN[C@H](CC(C)C)C(=O)N[C@H]1C(=O)N[C@@H](CC(N)=O)C(=O)N[C@H]2C(=O)N[C@H]3C(=O)N[C@H](C(=O)N[C@H](C(=O)O)c4cc(O)cc(O)c4-c4cc3ccc4O)[C@H](O)c3ccc(c(Cl)c3)Oc3cc2cc(c3O[C@@H]2O[C@H](CO)[C@@H](O)[C@H](O)[C@H]2O[C@H]2C[C@](C)(N)[C@H](O)[C@H](C)O2)Oc2ccc(cc2Cl)[C@H]1O [vancomycin hydrochloride, Vancomycin hydrochloride]
decrease of chromatographic purity (lyophilization at low temperature): ≥ 0.5%
decrease of purity level of the solution (vacuum drying at 40° C. within 8 hours): more than 1.0%
solubility in alcohol [1]: slightly soluble
solubility in water [1]: freely soluble
